Entries after “also recorded” stand apart in the source; their conditions may differ.

Format in all cases: cell-based
Test [1] concerns Akt. The test is described as follows: Plasma membrane targeted AktAR imaging in NIH3T3 cells. Conditions: 5 mM pre-incubation for 30 min. The source says: (§1) All of the targeting tags were subcloned to AktAR from targeted A Kinase Activity Reporter (AKAR) (Allen & Zhang, Biochem Biophys Res Commun. 2006, 22; 348(2):716-21). Two plasma membrane targeted AktAR, PM(Lyn)-AktAR and AktAR-PM(CAAX), were generated by addition of the N-terminal portion of Lyn kinase gene at the 5′ end and CAAX tag at the 3′ end of AktAR, respectively. Nuclear localization was achieved by a C-terminal nuclear localization signal (NLS) tag (PKKKRKVEDA, SEQ ID NO:31). The targeting motif from DAKAP1a was used to target AktAR to the outer membrane of mitochondria.
(§2) NIH 3T3 cells were used in all experiments. The cells were plated on sterilized glass coverslips in 35-mm dishes and were grown to 40% confluency in Dulbecco's modified Eagle's medium (10% FBS) at 37° C. with 5% CO2. Cells were transfected with Lipofectamine (Invitrogen) then serum-starved for 24 h before imaging.
NIH 3T3 cells were washed once with Hanks' balanced salt solution (HBSS) buffer and imaged in the dark at room temperature. Images were acquired on a Zeiss Axiovert 200M microscope with a cooled charge-coupled device camera, as described in Ananthanarayanan, 2005. […]
Imaging data were analyzed with Metafluor 6.2 software (Universal Imaging, Downingtown, Pa.). Fluorescence images were background-corrected by deducting the background (regions with no cells) from the emission intensities of CFP or YFP. […]

In test [2] the test system is Akt. The test is described as follows: Mito-AktAR imaging, Akt activity at the mitochondrial outer membrane, NIH3T3 cells.
Text: as §1, §2
(§3) NIH 3T3 cells were washed once with Hanks' balanced salt solution (HBSS) buffer and imaged in the dark at room temperature. Images were acquired on a Zeiss Axiovert 200M microscope with a cooled charge-coupled device camera, as described in Ananthanarayanan, 2005. Dual emission ratio imaging used a 420DF20 excitation filter, a 450DRLP dichroic mirror, and two emission filters. For CFP and YFP, 475DF40 and 535DF25 were used respectively. Exposure time was 50-500 ms. Images were taken every 20-30 s.
(§4) Imaging data were analyzed with Metafluor 6.2 software (Universal Imaging, Downingtown, Pa.). Fluorescence images were background-corrected by deducting the background (regions with no cells) from the emission intensities of CFP or YFP. Traces before addition of drugs were normalized to 1.
It has been known that Akt has several mitochondrial substrates. […] In summary, no basal, PDGF-stimulated, or phosphatase-suppressed endogenous Akt was detected at this location. It is possible that the extremely low activity of Akt at the mitochondrial outer membrane cannot be detected by Mito-AktAR.

The test system of test [3] is Akt. The experiment in a line: AktAR emission ratio imaging in NIH3T3 cells. The method, then:
as §2, §3, §4

Test [4] concerns calcineurin. The experiment in a line: Calcineurin activity reporter emission ratio imaging in HeLa cells. Conditions: 1 μM, 10 minute preincubation. As for the experimental part: FIG. 22. Characterization of calcineurin activity reporter 1 (CaNAR1). Graph of representative response of CaNAR1-expressing HeLa cells following ionomycin treatment. Ionomycin (1 μM) and additional CaCl2 (5 mM) were added to the imaging solution at the indicated times (arrows). The standard deviation for each time point is shown (n=2).
(§5) FIG. 23A-B. CaNAR1 is dephosphorylated in a calcineurin-dependent manner. FIG. 23A, graph of average response of CaNAR1 in the presence (black squares) or absence (gray diamonds) of cyclosporin A (CsA, 1-μM, 10 minute preincubation). Ionomycin and CaCl2 treatments are as described for FIG. 22. The standard error at each time point is shown (n=4 and 6 in the presence or absence of CsA, respectively). FIG. 23B, the electrophoretic mobility of CaNAR1 isolated from HeLa cell lysates was determined at various times after ionomycin addition using standard western blotting techniques using a rabbit anti-GFP antibody (diluted 1:4000 in blocking buffer) was used to probe for CaNAR1.
To generate a FRET-based reporter capable of monitoring calcineurin activity in live cells, we initially chose to flank NFAT1(1-415) with ECFP and cpV(L194) at the N- and C-termini, respectively. […] The emission ratio of yellow over cyan was then measured over time in HeLa cells expressing each construct, and their signals compared. […]

For test [5], the system named is calcineurin. The experiment in a line: Electrophoretic mobility of CaNAR1 from HeLa cell lysates (western blot). Conditions: preincubation prior to ionomycin treatment. As for the experimental part:
as §5
Next, to correlate the FRET change with dephosphorylation of CaNAR1, we took advantage of the fact that the electrophoretic mobility of NFAT1 is strongly influenced by its phosphorylation state. […] Though its calculated molecular weight is 85 kDa, CaNAR1 migrated almost exclusively as an approximately 125 kDa species in uninduced cell lysates, consistent with hyperphosphorylation of its substrate region. […] Thus, the observed FRET change is correlated with dephosphorylation of the reporter by calcineurin, providing a real-time readout for calcineurin activity.
For orientation: A western blot detects proteins with antibodies after separation by electrophoresis.

The subject of test [6] is p38 MAPK. The test is described as follows: JNK reporter specificity: inhibition of p38 MAPK in HeLa cells. Conditions: 25 μM, 45 min pre-treatment and continual presence. The method, then: FIG. 16A-B. Characterization of a MAPK reporter. FIG. 16A, Co-transfection of reporter with mCherry-JIPδ. To inhibit JNK activity, HeLa cells were co-transfected with the reporter and mCherry-JIPδ and imaged 24 h later in HBSS containing 10% FBS on stage warmer heated to 37° C. […] FIG. 16B, Response of reporter to inhibition of p38 MAPK.
To test the specificity of the reporter, HeLa cells were co-transfected with the reporter and a fusion construct of mCherry with the docking (δ) domain from JIP1.

For methylated β-cyclodextrin [MβCD], the “effect on PM(Lyn)-AktAR response to PDGF (lipid rafts)” value in test [1] was “delayed response and reduced dynamic range; also recorded: diminishes Akt activity at the plasma membrane lipid rafts”.

Turning to `COC[C@@H]([C@H](O)[C@H](O)C(=O)NCC[C@H](C)c1nc(/C=C/C[C@@H]2O[C@]3(C[C@@H](O)[C@@H]2C)O[C@H]([C@H](C[C@H](O)[C@H](C)[C@H](O)[C@H](C)/C=C(C)/C(C)=C/C=C/C(C)=C\C#N)OC)[C@H](OP(=O)(O)O)C3(C)C)co1)N(C)C` [Calyculin A], the “effect on Mito-AktAR response” value in test [2] (endogenous Akt, Calyculin A 5 nM or LY294002 20 μM) is “did not recover any Akt activity”; in test [2] (overexpressed Mito-mCherry-Akt1, Calyculin A 5 nM or LY294002) it was “failed to activate mitochondrial outer membrane-bound Akt”; in test [2] (overexpressed mCherry-Akt1, after PDGF, Calyculin A 5 nM or LY294002 20 μM), “further increased the response”. In test [3] (5 nM after PDGF 50 ng/ml, serum-starved NIH3T3 cells), the “effect on AktAR response” value is “substantially increased the response of AktAR”.

Cyclosporin A [CsA]: the “effect on FRET change of CaNAR1 induced by ionomycin” value is recorded as “completely abolished the FRET change” in test [4] and “abolished” in test [4] (listed as cyclosporine A). Moreover, the “effect on electrophoretic mobility of CaNAR1 after ionomycin” value in test [5] is “no change in the electrophoretic mobility”.

As to `C[S+]([O-])c1ccc(-c2nc(-c3ccncc3)c(-c3ccc(F)cc3)[nH]2)cc1` (stereo not shown) [SB203580], the “effect on response of the reporter to anisomycin” value in test [6] was “does not affect the response of the reporter to anisomycin”.

For the compound `CCCCCCCCCCCCCCCCCCOC[C@H](COP(=O)(O)O[C@H]1[C@H](O)[C@@H](O)[C@H](O)C[C@H]1OC)OC` [SH-5], the “AktAR response to PDGF after pre-incubation with inhibitor” value in test [3] (6 μM pre-incubation in HBSS, PDGF 50 ng/ml) is “did not show substantial response”.

Source of the values: patent publication US9017962B2, “Intracellular reporters” (The Johns Hopkins University, priority 2007, dated 2015).
